The text below walks through data of article PMC5218480 (PLoS ONE, 2017).

This experiment relates to MV-4-11 cells. Briefly: Gene expression microarray analysis (Affymetrix PrimeView) and GSEA. Format: cell-based, human. On the set-up: RFU PODN (11730768_x_at) / Fold change /veh PODN (11730768_x_at) / RFU LINC00158 (11744669_a_at) / Fold change /veh LINC00158 (11744669_a_at) / RFU DUSP10 (11751237_a_at) / Fold change /veh DUSP10 (11751237_a_at) / RFU ID3 (11757404_x_at) / Fold change /veh ID3 (11757404_x_at) / RFU PLEKHG5 (11737974_s_at) / Fold change /veh PLEKHG5 (11737974_s_at) / RFU LRRC4B (11730491_at) / Fold change /veh LRRC4B (11730491_at) / RFU GIMAP4 (11747438_a_at) / Fold change /veh GIMAP4 (11747438_a_at) / RFU KRT8 (11758183_x_at) / Fold change /veh KRT8 (11758183_x_at) / RFU CNN1 (11734310_a_at) / Fold change /veh CNN1 (11734310_a_at) / RFU VPS37D (11726825_at) / Fold change /veh VPS37D (11726825_at) / RFU C10orf10 (11716522_x_at) / Fold change /veh C10orf10 (11716522_x_at) / RFU KIR2DL2 /// KIR2DL4 /// KIR2DL5A /// KIR2DL5B /// KIR2DS1 /// KIR2DS2 /// KIR2DS3 /// KIR2DS4 /// KIR3DL3 /// KIR3DL3 /// KIR3DS1 (11738374_at) / Fold change /veh KIR2DL2 /// KIR2DL4 /// KIR2DL5A /// KIR2DL5B /// KIR2DS1 /// KIR2DS2 /// KIR2DS3 /// KIR2DS4 /// KIR3DL3 /// KIR3DL3 /// KIR3DS1 (11738374_at) / RFU C1QL1 (11718748_at) / Fold change /veh C1QL1 (11718748_at) / RFU TMPRSS4 (11747572_a_at) / Fold change /veh TMPRSS4 (11747572_a_at) / RFU HAMP (11756126_x_at) / Fold change /veh HAMP (11756126_x_at) / RFU RNFT2 (11725882_a_at) / Fold change /veh RNFT2 (11725882_a_at) / RFU NR4A2 (11747474_a_at) / Fold change /veh NR4A2 (11747474_a_at) / RFU ABCC12 (11746883_a_at) / Fold change /veh ABCC12 (11746883_a_at) / RFU TMEM136 (11760407_x_at) / Fold change /veh TMEM136 (11760407_x_at) / RFU CLDN22 /// WWC2 (11732394_at) / Fold change /veh CLDN22 /// WWC2 (11732394_at) / RFU HLA-DPB1 (11760878_x_at) / Fold change /veh HLA-DPB1 (11760878_x_at) / RFU SPINT1 (11716480_a_at) / Fold change /veh SPINT1 (11716480_a_at) / RFU GAP43 (11754022_s_at) / Fold change /veh GAP43 (11754022_s_at) / RFU A4GNT (11735810_at) / Fold change /veh A4GNT (11735810_at) / RFU PRB3 (11715151_x_at) / Fold change /veh PRB3 (11715151_x_at) / RFU TUBB4B (11761932_at) / Fold change /veh TUBB4B (11761932_at) / RFU CAPN14 (11732068_a_at) / Fold change /veh CAPN14 (11732068_a_at) / RFU TMCC2 (11721928_a_at) / Fold change /veh TMCC2 (11721928_a_at) / RFU IRGQ (11745062_a_at) / Fold change /veh IRGQ (11745062_a_at) / RFU FAM174B (11720279_a_at) / Fold change /veh FAM174B (11720279_a_at) / RFU TMPRSS4 (11748680_a_at) / Fold change /veh TMPRSS4 (11748680_a_at) / RFU FAM212B (11763350_a_at) / Fold change /veh FAM212B (11763350_a_at) / RFU PLEKHG5 (11743358_a_at) / Fold change /veh PLEKHG5 (11743358_a_at) / RFU ZSCAN30 (11745921_a_at) / Fold change /veh ZSCAN30 (11745921_a_at) / RFU CMKLR1 (11741424_a_at) / Fold change /veh CMKLR1 (11741424_a_at) / RFU LOC101060620 /// MAPK8IP1 (11723275_at) / Fold change /veh LOC101060620 /// MAPK8IP1 (11723275_at) / RFU SPTSSB (11747773_x_at) / Fold change /veh SPTSSB (11747773_x_at) / RFU PRSS12 (11739890_at) / Fold change /veh PRSS12 (11739890_at) / RFU BIN1 (11741810_x_at) / Fold change /veh BIN1 (11741810_x_at) / RFU WNT11 (11732464_a_at) / Fold change /veh WNT11 (11732464_a_at) / RFU C10orf10 (11716521_a_at) / Fold change /veh C10orf10 (11716521_a_at) / RFU C5orf56 (11738089_at) / Fold change /veh C5orf56 (11738089_at) / RFU CYB561 (11721691_x_at) / Fold change /veh CYB561 (11721691_x_at) / RFU ANKRD19P (11752326_a_at) / Fold change /veh ANKRD19P (11752326_a_at) / RFU OR2T12 /// OR2T33 /// OR2T8 (11738714_s_at) / Fold change /veh OR2T12 /// OR2T33 /// OR2T8 (11738714_s_at) / RFU VCAN (11748164_a_at) / Fold change /veh VCAN (11748164_a_at) / RFU JSRP1 (11732532_at) / Fold change /veh JSRP1 (11732532_at) / RFU KRTAP10-11 (11738290_x_at) / Fold change /veh KRTAP10-11 (11738290_x_at) / RFU MYO3A (11730013_a_at) / Fold change /veh MYO3A (11730013_a_at) / RFU EBF3 (11725865_a_at) / Fold change /veh EBF3 (11725865_a_at) / RFU CAMK2N1 (11719241_x_at) / Fold change /veh CAMK2N1 (11719241_x_at) / RFU C5orf56 (11738088_a_at) / Fold change /veh C5orf56 (11738088_a_at) / RFU OLFML3 (11715873_a_at) / Fold change /veh OLFML3 (11715873_a_at) / RFU LOC100653217 /// NTM (11731650_a_at) / Fold change /veh LOC100653217 /// NTM (11731650_a_at) / RFU MAPK11 (11762145_a_at) / Fold change /veh MAPK11 (11762145_a_at) / RFU FIZ1 (11724087_x_at) / Fold change /veh FIZ1 (11724087_x_at) / RFU OASL (11726364_x_at) / Fold change /veh OASL (11726364_x_at) / RFU SOX15 (11748057_x_at) / Fold change /veh SOX15 (11748057_x_at) / RFU CD79A (11719716_a_at) / Fold change /veh CD79A (11719716_a_at) / RFU HIST1H1D (11736915_at) / Fold change /veh HIST1H1D (11736915_at) / RFU CASKIN2 (11723855_a_at) / Fold change /veh CASKIN2 (11723855_a_at) / RFU LOC730098 (11760151_x_at) / Fold change /veh LOC730098 (11760151_x_at) / RFU OR4N2 (11742367_at) / Fold change /veh OR4N2 (11742367_at) / RFU PRRT2 (11749266_a_at) / Fold change /veh PRRT2 (11749266_a_at) / RFU SNX32 (11753110_a_at) / Fold change /veh SNX32 (11753110_a_at) / RFU CDHR5 (11726645_a_at) / Fold change /veh CDHR5 (11726645_a_at) / RFU RCAN1 (11760418_a_at) / Fold change /veh RCAN1 (11760418_a_at) / RFU FAM167A (11723789_a_at) / Fold change /veh FAM167A (11723789_a_at) / RFU FAM26E (11764081_at) / Fold change /veh FAM26E (11764081_at) / RFU ISYNA1 (11749810_s_at) / Fold change /veh ISYNA1 (11749810_s_at) / RFU ACY1 (11761880_at) / Fold change /veh ACY1 (11761880_at) / RFU 11764098_at / Fold change /veh 11764098_at / RFU SAMD14 (11745864_x_at) / Fold change /veh SAMD14 (11745864_x_at) / RFU NPB (11741838_a_at) / Fold change /veh NPB (11741838_a_at) / RFU TMPRSS6 (11731388_a_at) / Fold change /veh TMPRSS6 (11731388_a_at) / RFU KRTAP10-2 (11738614_at) / Fold change /veh KRTAP10-2 (11738614_at) / RFU ARHGAP8 /// PRR5-ARHGAP8 (11727945_x_at) / Fold change /veh ARHGAP8 /// PRR5-ARHGAP8 (11727945_x_at) / RFU KRTAP5-7 /// NADSYN1 (11734609_at) / Fold change /veh KRTAP5-7 /// NADSYN1 (11734609_at) / RFU RASL12 (11751679_a_at) / Fold change /veh RASL12 (11751679_a_at) / RFU CDKN2B (11736163_a_at) / Fold change /veh CDKN2B (11736163_a_at) / RFU PRF1 (11729649_at) / Fold change /veh PRF1 (11729649_at) / RFU, ZNF638 /// ZNF638-IT1 / Fold change vs veh, ZNF638 /// ZNF638-IT1 / RFU, PANK3 / Fold change vs veh, PANK3 / RFU, SH3YL1 / Fold change vs veh, SH3YL1 / RFU, ZEB2 / Fold change vs veh, ZEB2 / RFU, NRIP1 / Fold change vs veh, NRIP1 / RFU, PTTG1IP / Fold change vs veh, PTTG1IP / RFU, CAPN2 / Fold change vs veh, CAPN2 / RFU, MED14 / Fold change vs veh, MED14 / RFU, SNORA58 / Fold change vs veh, SNORA58 / RFU, C1orf63 / Fold change vs veh, C1orf63 / RFU, LRRFIP1 / Fold change vs veh, LRRFIP1 / RFU, NDUFAF7 / Fold change vs veh, NDUFAF7 / RFU, SLC12A2 / Fold change vs veh, SLC12A2 / RFU, IBTK / Fold change vs veh, IBTK / RFU, ESF1 / Fold change vs veh, ESF1 / Fold change vs veh, TMEM50B / RFU, TAOK1 / Fold change vs veh, TAOK1 / RFU, ACBD3 / Fold change vs veh, ACBD3 / RFU, TMA16 / Fold change vs veh, TMA16 / RFU, RWDD3 / Fold change vs veh, RWDD3 / RFU, BCAT1 / Fold change vs veh, BCAT1 / RFU, EDEM3 / Fold change vs veh, EDEM3 / RFU, TMEM33 / Fold change vs veh, TMEM33 / RFU, WDR75 / Fold change vs veh, WDR75 / RFU, AHCTF1 / Fold change vs veh, AHCTF1 / RFU, TFRC / Fold change vs veh, TFRC / RFU, ZDHHC17 / Fold change vs veh, ZDHHC17 / RFU, NOM1 / Fold change vs veh, NOM1 / RFU, ARL8B / Fold change vs veh, ARL8B / RFU, ZBTB11 / Fold change vs veh, ZBTB11 / RFU, TAMM41 / Fold change vs veh, TAMM41 / RFU, KIAA1704 /// LOC100996395 / Fold change vs veh, KIAA1704 /// LOC100996395 / RFU, ING1 / Fold change vs veh, ING1 / RFU, TRMT61B / Fold change vs veh, TRMT61B / RFU, FUBP3 / Fold change vs veh, FUBP3 / RFU, TP53 / Fold change vs veh, TP53 / RFU, TNKS2 / Fold change vs veh, TNKS2 / RFU, ZFP14 / Fold change vs veh, ZFP14 / RFU, ACTR2 / Fold change vs veh, ACTR2 / RFU, PPP3R1 / Fold change vs veh, PPP3R1 / RFU, PIK3R1 / Fold change vs veh, PIK3R1 / RFU, HNRNPA1 / Fold change vs veh, HNRNPA1 / RFU, RNF170 / Fold change vs veh, RNF170 / RFU, ZNF28 / Fold change vs veh, ZNF28 / RFU, RNGTT / Fold change vs veh, RNGTT / RFU, OGT / Fold change vs veh, OGT / RFU, BRD1 / Fold change vs veh, BRD1 / RFU, MARS / Fold change vs veh, MARS / RFU, ZNF655 / Fold change vs veh, ZNF655 / RFU, FAHD1 / Fold change vs veh, FAHD1 / RFU, BDP1 / Fold change vs veh, BDP1 / RFU, LRRCC1 / Fold change vs veh, LRRCC1 / RFU, ARID1A / Fold change vs veh, ARID1A / RFU, ZNF146 / Fold change vs veh, ZNF146 / RFU, ZNF330 / Fold change vs veh, ZNF330 / RFU, GPN3 / Fold change vs veh, GPN3 / RFU, C9orf123 / Fold change vs veh, C9orf123 / RFU, N4BP2L2 / Fold change vs veh, N4BP2L2 / RFU, ARFIP1 / Fold change vs veh, ARFIP1 / RFU, FAM179B / Fold change vs veh, FAM179B / RFU, BCL10 / Fold change vs veh, BCL10 / RFU, UHRF1BP1L / Fold change vs veh, UHRF1BP1L / RFU, BET1 / Fold change vs veh, BET1 / RFU, CNOT2 / Fold change vs veh, CNOT2 / RFU, ZNF268 / Fold change vs veh, ZNF268 / Fold change vs veh, ZNF507 / RFU, DGCR2 / Fold change vs veh, DGCR2 / RFU, WDSUB1 / Fold change vs veh, WDSUB1 / Fold change vs veh, HSP90B1 /// MIR3652 / RFU, ADSS / Fold change vs veh, ADSS / RFU, GK / Fold change vs veh, GK / RFU, ZNF148 / Fold change vs veh, ZNF148 / RFU, TAF9 / Fold change vs veh, TAF9 / RFU, SLC1A5 / Fold change vs veh, SLC1A5 / RFU, SLMO2 / Fold change vs veh, SLMO2 / RFU, ABCC4 / Fold change vs veh, ABCC4 / RFU, LOC101060439 /// RAP1B / Fold change vs veh, LOC101060439 /// RAP1B / RFU, RFX7 / Fold change vs veh, RFX7 / RFU, GTPBP10 / Fold change vs veh, GTPBP10 / RFU, CNEP1R1 / Fold change vs veh, CNEP1R1 / RFU, BIVM-ERCC5 /// ERCC5 / Fold change vs veh, BIVM-ERCC5 /// ERCC5 / RFU, ILF3 / Fold change vs veh, ILF3 / RFU 11762660_at / Fold change /veh 11762660_at / RFU VCAN (11757783_s_at) / Fold change /veh VCAN (11757783_s_at) / RFU DDX43 (11728927_at) / Fold change /veh DDX43 (11728927_at) / RFU KRT8 (11758188_x_at) / Fold change /veh KRT8 (11758188_x_at) / RFU NKD1 (11759106_at) / Fold change /veh NKD1 (11759106_at) / RFU SRD5A1 (11742802_a_at) / Fold change /veh SRD5A1 (11742802_a_at) / RFU TPSAB1 /// TPSB2 (11721975_s_at) / Fold change /veh TPSAB1 /// TPSB2 (11721975_s_at) / RFU GSTM3 (11746129_a_at) / Fold change /veh GSTM3 (11746129_a_at) / RFU IL23R (11737362_x_at) / Fold change /veh IL23R (11737362_x_at) / RFU TMEM51 (11727254_a_at) / Fold change /veh TMEM51 (11727254_a_at) / RFU PIWIL2 (11732686_x_at) / Fold change /veh PIWIL2 (11732686_x_at) / RFU ORM1 (11744905_x_at) / Fold change /veh ORM1 (11744905_x_at) / RFU CCDC152 (11743942_at) / Fold change /veh CCDC152 (11743942_at) / RFU ECM1 (11717891_a_at) / Fold change /veh ECM1 (11717891_a_at) / RFU IL23R (11748794_a_at) / Fold change /veh IL23R (11748794_a_at) / RFU TNFAIP8L3 (11732012_x_at) / Fold change /veh TNFAIP8L3 (11732012_x_at) / RFU MBOAT4 (11741988_at) / Fold change /veh MBOAT4 (11741988_at) / RFU 11764193_at / Fold change /veh 11764193_at / RFU TMEM53 (11763286_at) / Fold change /veh TMEM53 (11763286_at) / RFU MAGEB2 (11727129_at) / Fold change /veh MAGEB2 (11727129_at) / RFU TMEM200A (11744735_a_at) / Fold change /veh TMEM200A (11744735_a_at) / RFU CCDC152 (11751479_a_at) / Fold change /veh CCDC152 (11751479_a_at) / RFU FAM211A (11726209_a_at) / Fold change /veh FAM211A (11726209_a_at) / RFU RGS16 (11746705_a_at) / Fold change /veh RGS16 (11746705_a_at) / RFU VCAN (11755009_s_at) / Fold change /veh VCAN (11755009_s_at) / RFU RHOB (11743442_s_at) / Fold change /veh RHOB (11743442_s_at) / RFU RGS16 (11720943_a_at) / Fold change /veh RGS16 (11720943_a_at) / RFU RGS16 (11720944_at) / Fold change /veh RGS16 (11720944_at) / RFU, VPS4B / Fold change vs veh, VPS4B / RFU, CREB1 / Fold change vs veh, CREB1 / RFU, DNAJC13 / Fold change vs veh, DNAJC13 / RFU, GNAQ / Fold change vs veh, GNAQ / RFU, CDK5R1 / Fold change vs veh, CDK5R1 / RFU, ZRANB3 / Fold change vs veh, ZRANB3 / RFU, CUL4A / Fold change vs veh, CUL4A / RFU, CCNY / Fold change vs veh, CCNY / RFU, UFL1 / Fold change vs veh, UFL1 / RFU, COG3 / Fold change vs veh, COG3 / RFU, DIAPH2 / Fold change vs veh, DIAPH2 / RFU, SKA2 / Fold change vs veh, SKA2 / RFU, AFF3 / Fold change vs veh, AFF3 / RFU, LMF1 / Fold change vs veh, LMF1 / RFU, IPO11 / Fold change vs veh, IPO11 / RFU, DFFB / Fold change vs veh, DFFB / RFU, FOXP1 / Fold change vs veh, FOXP1 / RFU, CARD8 / Fold change vs veh, CARD8 / RFU, STRN3 / Fold change vs veh, STRN3 / RFU, ADK / Fold change vs veh, ADK / RFU, RASSF2 / Fold change vs veh, RASSF2 / RFU, WIPF1 / Fold change vs veh, WIPF1 / RFU, LARP1B / Fold change vs veh, LARP1B / RFU, RASA1 / Fold change vs veh, RASA1 / RFU, RB1 / Fold change vs veh, RB1 / RFU, PPFIA1 / Fold change vs veh, PPFIA1 / RFU, MAT2A / Fold change vs veh, MAT2A / RFU, CCT5 / Fold change vs veh, CCT5 / RFU, WDR92 / Fold change vs veh, WDR92 / RFU, CUX1 / Fold change vs veh, CUX1 / RFU, TTC7A / Fold change vs veh, TTC7A / RFU, TMEM135 / Fold change vs veh, TMEM135 / RFU, DEPTOR / Fold change vs veh, DEPTOR / RFU, CPM / Fold change vs veh, CPM / RFU, DNAJB6 / Fold change vs veh, DNAJB6 / RFU, CACNA2D3 / Fold change vs veh, CACNA2D3 / RFU, DTX4 / Fold change vs veh, DTX4 / RFU, TFCP2 / Fold change vs veh, TFCP2 / RFU, GMCL1 /// GMCL1P1 / Fold change vs veh, GMCL1 /// GMCL1P1 / RFU, AEBP2 / Fold change vs veh, AEBP2 / RFU, SNHG1 /// SNORD22 /// SNORD25 /// SNORD26 /// SNORD27 /// SNORD28 /// SNORD29 /// SNORD31 / Fold change vs veh, SNHG1 /// SNORD22 /// SNORD25 /// SNORD26 /// SNORD27 /// SNORD28 /// SNORD29 /// SNORD31 / Fold change (Aza/veh), C12orf56 (ProbeSet 11735607_a_at) / Fold change (ACY-1035/veh), C12orf56 (ProbeSet 11735607_a_at) / Fold change (Aza/veh), FGFR1OP (ProbeSet 11751329_s_at) / Fold change (ACY-1035/veh), FGFR1OP (ProbeSet 11751329_s_at) / Fold change (Aza/veh), VPS36 (ProbeSet 11739960_a_at) / Fold change (ACY-1035/veh), VPS36 (ProbeSet 11739960_a_at) / RFU SYPL1 (11715823_x_at) / Fold change /veh SYPL1 (11715823_x_at) / RFU IGFBP7 (11715501_s_at) / Fold change /veh IGFBP7 (11715501_s_at) / RFU REEP3 (11722064_at) / Fold change /veh REEP3 (11722064_at) / RFU IGLL1 (11728026_x_at) / Fold change /veh IGLL1 (11728026_x_at): dose or concentration left out as unconfirmed. To be noted: ProbeSet 11719632_a_at; LIST B.

As for `Nc1ccc(-c2cccs2)cc1NC(=O)c1ccc2c(c1)cc(C1CC1)n2CCN1CCOCC1` [ACY-1035], the “Fold change vs veh, ABCC4” value is 0.87.
